Assay [1] has as its target T1, human enzyme NAMPT (full length) (Homo sapiens, UniProt P43490).
T1 construct: human enzyme NAMPT (full length)
The experiment in a line: NMN fluorescence biochemical assay (stimulation of NMN synthesis by NAMPT). To be noted: for EC50: concentration giving half-maximal activation, read-out: Enzymatic EC50; for Enzymatic Emax: fold change of maximal activation compared to DMSO. Put shortly:
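Full-length human NAMPT (100 nM) was preincubated 15 min at 37 °C with compound in 50 mM Tris-HCl pH 7.5, 10 mM MgCl2, 2 mM DTT, then reacted 1 h at 37 °C with 50 μM NAM, 100 μM PRPP, 4 mM ATP (stated solution concentrations). NMN was derivatised with acetophenone/KOH then formic acid and read at Ex/Em 382/445 nm; EC50 and Emax (fold over DMSO) reported.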

Assay [2] deals with endogenous NAMPT in U2OS cells. In words: Cellular NAD+ modulation assay (NAD/NADH-Glo, U2OS cells). The following applies: Homo sapiens; for maximal fold induction: read-out: Cellular Emax. It counts as cell-based. A digest of the protocol: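 NAD/NADH-Glo luminescence quantified NAD+ after acid treatment (60 °C, 15 min) and neutralization of DTAB lysates. Beforehand, U2OS cells seeded 16 h earlier received compound concentration series for 24 h at 37 °C. Values given as half-maximal activation concentration (EC50) and maximal fold change versus DMSO (Emax).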

[3] abbreviates: NMN fluorescence assay, purified human NAMPT 100 nM.
Where [4] appears, read: 24 hours incubation, cellular NAD+.
Setting [5] is: NMN synthesis by purified human NAMPT (100 nM).
The mark [6] stands for this setting: 24 hours incubation with compound.

The values below come from US20260078130A1, “NAMPT MODULATORS, PREPARATIONS, AND USES THEREOF” (SIRONAX LTD., priority 2022, published 2026).

SMILES strings stand for the structures. Like-named read-outs stand apart in the source and are kept apart here.

T1 sequence (P43490 whole entry): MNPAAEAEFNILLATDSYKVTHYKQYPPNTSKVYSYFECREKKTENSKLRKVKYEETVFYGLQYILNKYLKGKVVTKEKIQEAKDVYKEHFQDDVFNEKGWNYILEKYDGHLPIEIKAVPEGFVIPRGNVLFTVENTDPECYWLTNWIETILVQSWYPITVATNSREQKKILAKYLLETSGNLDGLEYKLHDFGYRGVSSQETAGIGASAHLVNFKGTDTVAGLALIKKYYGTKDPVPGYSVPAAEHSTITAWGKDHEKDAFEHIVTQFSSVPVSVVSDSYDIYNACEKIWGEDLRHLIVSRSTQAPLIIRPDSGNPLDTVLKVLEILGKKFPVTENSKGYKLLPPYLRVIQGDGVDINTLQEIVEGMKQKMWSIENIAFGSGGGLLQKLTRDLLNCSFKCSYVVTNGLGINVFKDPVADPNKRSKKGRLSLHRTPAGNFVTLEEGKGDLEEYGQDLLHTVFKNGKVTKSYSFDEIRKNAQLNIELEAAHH

Take `N#Cc1ccnc(C#N)c1CC1c2ccccc2C(=O)N1CC1CC2(CNC(=O)O2)C1` (stereo not drawn) [Compound 446, 3-((3-oxo-2-((6-oxo-5-oxa-7-azaspiro[3.4]octan-2-yl)methyl)isoindolin-1-yl)methyl)pyridine-2,4-dicarbonitrile]: the EC50 (usually the concentration that produces a half-maximal response) in assay [1] (setting [3]) was less than 0.5 µM. The “Enzymatic Emax” value in assay [1] is recorded as “B (3≥B>2)”. In addition, in assay [2] (setting [4]), the EC50 was less than 0.5 µM and the maximal fold induction was greater than 1.5.

For the molecule `COc1ccc(CN2C(=O)c3ccc(C4CC4)cc3C2Cc2c(C)ncnc2C#N)cc1` (stereo not drawn) [Compound 638, 5-((6-cyclopropyl-2-(4-methoxybenzyl)-3-oxoisoindolin-1-yl)methyl)-6-methylpyrimidine-4-carbonitrile], the values for the concentration for a half-maximal effect (EC50) in assay [1] (setting [3]) and in assay [2] (setting [4]) were 0.5 to 5 µM and less than 0.5 µM, respectively. Besides, the “Enzymatic Emax” value in assay [1] is on record as “A (A>3)”. In addition, the maximal fold induction in assay [2] (setting [4]) was 1.2 to 1.5.

For `N#Cc1ccccc1CC1c2ccccc2C(=O)N1Cc1ccc(O)c(F)c1` (stereo not drawn) [Compound 195, 2-((2-(3-fluoro-4-hydroxybenzyl)-3-oxoisoindolin-1-yl)methyl)benzonitrile], the EC50 in assay [1] (setting [5]) is less than 0.5 µM. For the same molecule, in assay [1], the “Enzymatic Emax” value is “B (3≥B>2)”. Also, in assay [2] (setting [6]), the EC50 is less than 0.5 µM and the maximal fold induction was in the range of 1.2 to 1.5.

Regarding `COc1ccc2c(c1)C(=O)N(Cc1ccc3[nH]nnc3c1)C2Cc1c(Cl)cnn1C` (stereo not drawn) [Compound 414, 2-((1H-benzo[d][1,2,3]triazol-5-yl)methyl)-3-((4-chloro-1-methyl-1H-pyrazol-5-yl)methyl)-6-methoxyisoindolin-1-one], the EC50 in assay [1] (setting [3]) was 0.5 to 5 µM. In addition, the “Enzymatic Emax” value in assay [1] is listed as “A (A>3)”. Further, in assay [2] (setting [4]), the EC50 is less than 0.5 µM and the maximal fold induction was greater than 1.5.

With `C[C@@H]1c2ccccc2C(=O)N1Cc1ccc2[nH]c(=O)oc2c1` [Compound 55, (R)-6-((1-methyl-3-oxoisoindolin-2-yl)methyl)benzo[d]oxazol-2(3H)-one], the EC50 in assay [1] (setting [5]) is no less than 5 µM. Besides, in assay [1], the “Enzymatic Emax” value is on record as “B (3≥B>2)”. In assay [2] (setting [6]), the EC50 is 5 to 50 µM and the maximal fold induction lay within 1.2 to 1.5.

For `Cn1ncc(Cl)c1CC1c2cc(CN3CCOCC3)ccc2C(=O)N1CC1CC2(CNC(=O)O2)C1` (stereo not drawn) [Compound 461, 2-((3-((4-chloro-1-methyl-1H-pyrazol-5-yl)methyl)-5-(morpholinomethyl)-1-oxoisoindolin-2-yl)methyl)-5-oxa-7-azaspiro[3.4]octan-6-one], the EC50 in assay [1] (setting [3]) lay within 0.5 to 5 µM. In addition, in assay [1], the “Enzymatic Emax” value is listed as “B (3≥B>2)”. Further, in assay [2] (setting [4]), the EC50 fell in the range of 0.5 to 5 µM and the maximal fold induction was greater than 1.5.

`Cn1ncc(Cl)c1CC1c2ccccc2C(=O)N1C[C@@H]1C[C@@H]1c1c[nH]nn1` (relative stereo) [Compound 604, cis 2-((2-(1H-1,2,3-triazol-4-yl)cyclopropyl)methyl)-3-((4-chloro-1-methyl-1H-pyrazol-5-yl)methyl)isoindolin-1-one]: in assay [1] (setting [3]), the EC50 was no less than 5 µM. Also, the “Enzymatic Emax” value in assay [1] is recorded as “C (2≥C)”. Besides, in assay [2] (setting [4]), the EC50 was 5 to 50 µM and the maximal fold induction is no more than 1.2.

Regarding `Cn1ncc(Cl)c1CC1c2ccccc2C(=O)N1C/C(F)=C/c1c[nH]nc1Cl` (stereo not drawn) [Compound 519, (Z)-3-((4-chloro-1-methyl-1H-pyrazol-5-yl)methyl)-2-(3-(3-chloro-1H-pyrazol-4-yl)-2-fluoroallyl)isoindolin-1-one], in assay [1] (setting [3]), the EC50 is 0.5 to 5 µM. For the same molecule, the “Enzymatic Emax” value in assay [1] was “B (3≥B>2)”. In assay [2] (setting [4]), the EC50 was 0.5 to 5 µM and the maximal fold induction is greater than 1.5.

With `Cn1c(=O)oc2cc(CN3C(=O)c4ccccc4C3Cc3c(Br)cccc3C#N)ccc21` (stereo not drawn) [Compound 552, 3-bromo-2-((2-((3-methyl-2-oxo-2,3-dihydrobenzo[d]oxazol-6-yl)methyl)-3-oxoisoindolin-1-yl)methyl)benzonitrile], the EC50 in assay [1] (setting [3]) and in assay [2] (setting [4]) was less than 0.5 µM in each case. In assay [1], the “Enzymatic Emax” value is given as “A (A>3)”. Moreover, the maximal fold induction in assay [2] (setting [4]) was greater than 1.5.
